Reference: the NIST ThermoML archive (doi:10.1021/je800579j)

How the values were obtained:
[1] = xn = mol fraction of the nth substance listed; details: Liquid, Pycnometric method
[2] = refractive index (Na D-line) (dimensionless); xn = mol fraction of the nth substance listed; details: Liquid, Standard Abbe refractometry
[3] = Liquid, Pycnometric method
[4] = refractive index (Na D-line) (dimensionless); details: Liquid, Standard Abbe refractometry

Cc1ccccc1 [toluene] + C1COCCO1
x2 = 0
Details | mass density, [1] [kg/m3] | refractive index, [2]
288.15 K | 871.79 | 1.4998
293.15 K | 867.08 | 1.497
298.15 K | 862.36 | 1.4942
303.15 K | 857.64 | 1.4913
308.15 K | 852.93 | 1.4884
313.15 K | 848.21 | 1.4855
318.15 K | 843.49 | 1.4826

C1COCCO1 [1,4-dioxane] + Cc1ccc(C)cc1
x1 = 1
Details | mass density, [1] [kg/m3] | refractive index, [2]
288.15 K | 1039.23 | 1.4245
293.15 K | 1033.59 | 1.4224
298.15 K | 1027.95 | 1.4203
303.15 K | 1022.32 | 1.4182
308.15 K | 1016.68 | 1.4161
313.15 K | 1011.05 | 1.4139
318.15 K | 1005.42 | 1.4117

Cc1cc(C)cc(C)c1 [1,3,5-trimethylbenzene]
Details | mass density, [3] [kg/m3] | refractive index, [4]
288.15 K | 869.28 | 1.502
293.15 K | 865.37 | 1.4995
298.15 K | 861.45 | 1.4969
303.15 K | 857.54 | 1.4944
308.15 K | 853.63 | 1.4918
313.15 K | 849.71 | 1.4893
318.15 K | 845.8 | 1.4868

Cc1ccccc1 [toluene]
Details | mass density, [3] [kg/m3] | refractive index, [4]
288.15 K | 871.79 | 1.4998
293.15 K | 867.08 | 1.497
298.15 K | 862.36 | 1.4942
303.15 K | 857.64 | 1.4913
308.15 K | 852.93 | 1.4884
313.15 K | 848.21 | 1.4855
318.15 K | 843.49 | 1.4826

Cc1cccc(C)c1 [1,3-dimethylbenzene]
Details | mass density, [3] [kg/m3] | refractive index, [4]
288.15 K | 868.59 | 1.4999
293.15 K | 864.31 | 1.4974
298.15 K | 860.02 | 1.4948
303.15 K | 855.74 | 1.4922
308.15 K | 851.45 | 1.4896
313.15 K | 847.17 | 1.487
318.15 K | 842.88 | 1.4844

C1COCCO1 [1,4-dioxane]
Details | mass density, [3] [kg/m3] | refractive index, [4]
288.15 K | 1039.23 | 1.4245
293.15 K | 1033.59 | 1.4224
298.15 K | 1027.95 | 1.4203
303.15 K | 1022.32 | 1.4182
308.15 K | 1016.68 | 1.4161
313.15 K | 1011.05 | 1.4139
318.15 K | 1005.42 | 1.4117

C1COCCO1 [1,4-dioxane] + Cc1cc(C)cc(C)c1
x1 = 1
Details | mass density, [1] [kg/m3] | refractive index, [2]
288.15 K | 1039.23 | 1.4245
293.15 K | 1033.59 | 1.4224
298.15 K | 1027.95 | 1.4203
303.15 K | 1022.32 | 1.4182
308.15 K | 1016.68 | 1.4161
313.15 K | 1011.05 | 1.4139
318.15 K | 1005.42 | 1.4117

c1ccccc1 [benzene]
Details | mass density, [3] [kg/m3] | refractive index, [4]
288.15 K | 884.3 | 1.5042
293.15 K | 878.95 | 1.5011
298.15 K | 873.61 | 1.498
303.15 K | 868.26 | 1.4949
308.15 K | 862.9 | 1.4918
313.15 K | 857.56 | 1.4887
318.15 K | 852.23 | 1.4856

c1ccccc1 [benzene] + C1COCCO1
x2 = 0
Details | mass density, [1] [kg/m3] | refractive index, [2]
288.15 K | 884.3 | 1.5042
293.15 K | 878.95 | 1.5011
298.15 K | 873.61 | 1.498
303.15 K | 868.26 | 1.4949
308.15 K | 862.9 | 1.4918
313.15 K | 857.56 | 1.4887
318.15 K | 852.23 | 1.4856

Cc1ccccc1C [1,2-dimethylbenzene]
Details | mass density, [3] [kg/m3] | refractive index, [4]
288.15 K | 884.09 | 1.5083
293.15 K | 879.83 | 1.5055
298.15 K | 875.57 | 1.5029
303.15 K | 871.31 | 1.5002
308.15 K | 867.05 | 1.4975
313.15 K | 862.79 | 1.4948
318.15 K | 858.53 | 1.4921

C1COCCO1 [1,4-dioxane] + Cc1cccc(C)c1
x1 = 1
Details | mass density, [1] [kg/m3] | refractive index, [2]
288.15 K | 1039.23 | 1.4245
293.15 K | 1033.59 | 1.4224
298.15 K | 1027.95 | 1.4203
303.15 K | 1022.32 | 1.4182
308.15 K | 1016.68 | 1.4161
313.15 K | 1011.05 | 1.4139
318.15 K | 1005.42 | 1.4117

Cc1ccc(C)cc1 [1,4-dimethylbenzene]
Details | mass density, [3] [kg/m3] | refractive index, [4]
288.15 K | 865.52 | 1.4985
293.15 K | 861.17 | 1.4959
298.15 K | 856.82 | 1.4933
303.15 K | 852.47 | 1.4907
308.15 K | 848.12 | 1.4881
313.15 K | 843.77 | 1.4855
318.15 K | 839.42 | 1.483

C1COCCO1 [1,4-dioxane] + Cc1ccccc1C
x1 = 1
Details | mass density, [1] [kg/m3] | refractive index, [2]
288.15 K | 1039.23 | 1.4245
293.15 K | 1033.59 | 1.4224
298.15 K | 1027.95 | 1.4203
303.15 K | 1022.32 | 1.4182
308.15 K | 1016.68 | 1.4161
313.15 K | 1011.05 | 1.4139
318.15 K | 1005.42 | 1.4117
